Each structure is given as a SMILES string.

The target of the assay is PAFR (Homo sapiens, UniProt P25105). Briefly: PAF Binding Assay (PAFR binding).
Chain of PAFR (P25105 whole entry): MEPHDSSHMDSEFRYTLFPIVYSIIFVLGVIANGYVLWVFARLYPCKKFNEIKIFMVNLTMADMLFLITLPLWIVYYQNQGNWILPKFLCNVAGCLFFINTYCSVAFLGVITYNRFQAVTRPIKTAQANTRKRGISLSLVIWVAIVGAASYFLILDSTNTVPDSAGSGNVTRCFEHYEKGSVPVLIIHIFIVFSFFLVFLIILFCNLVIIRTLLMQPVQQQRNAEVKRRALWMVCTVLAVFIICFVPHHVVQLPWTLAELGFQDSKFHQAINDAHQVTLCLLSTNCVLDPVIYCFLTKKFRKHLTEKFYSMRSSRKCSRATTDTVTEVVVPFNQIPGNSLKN
As to `CCc1cc(-c2ccc(F)cc2F)ccc1S(=O)(=O)N[C@H]1CCC[C@@H](n2cnnc2)C1` [Compound 2Av, 3-ethyl-2′,4′-difluoro-N-[(1S,3R)-3-(4H-1,2,4-triazol-4-yl)cyclohexyl]biphenyl-4-sulfonamide], the IC50 (usually the concentration at which inhibition is half-maximal) stood at 16 nM.
In the case of `CCc1cc(-c2ccc(OC(F)(F)F)cc2)ccc1S(=O)(=O)N[C@@H]1C[C@H](n2cnnc2)CC(F)(F)C1` [Compound 2Cal, N-[(1R,5S)-3,3-difluoro-5-(4H-1,2,4-triazol-4-yl)cyclohexyl]-3-ethyl-4′-(trifluoromethoxy)biphenyl-4-sulfonamide] it was 11 nM; in that of `CCc1cc(-c2ccc(OCC(F)(F)F)nc2)ccc1S(=O)(=O)N[C@H]1CCC[C@@H](n2cnnc2)C1` [Compound 2Aak, 2-ethyl-N-[(1S,3R)-3-(4H-1,2,4-triazol-4-yl)cyclohexyl]-4-[6-(2,2,2-trifluoroethoxy)pyridin-3-yl]benzenesulfonamide], 0.7 nM; in that of `O=S(=O)(N[C@H]1CCC[C@@H](n2cnnc2)C1)c1ccc(-c2noc(C3CC3)n2)cc1C1CC1` [Compound 2Ka, 2-cyclopropyl-4-(5-cyclopropyl-1,2,4-oxadiazol-3-yl)-N-[(1S,3R)-3-(4H-1,2,4-triazol-4-yl)cyclohexyl]benzenesulfonamide], 2.7 nM.
`CCc1cc(-c2noc(C3CC3)n2)ccc1S(=O)(=O)N[C@H]1CCC[C@@H](n2cnnc2C)C1` [Compound 2Abb, 4-(5-cyclopropyl-1,2,4-oxadiazol-3-yl)-2-ethyl-N-[(1S,3R)-3-(3-methyl-4H-1,2,4-triazol-4-yl)cyclohexyl]benzenesulfonamide] registered an IC50 of 2 nM.
For `CC(C)Oc1ccc(-c2ccc(S(=O)(=O)N[C@@H]3C[C@H](n4cnnc4)CC(F)(F)C3)cc2F)cc1` [Compound 2Gd, N-[(1R,5S)-3,3-difluoro-5-(4H-1,2,4-triazol-4-yl)cyclohexyl]-2-fluoro-4′-isopropoxybiphenyl-4-sulfonamide] the value was 7.2 nM; for `Cc1nncn1[C@@H]1CCC[C@H](NS(=O)(=O)c2ccc(-c3ccc(OCC(F)(F)F)nc3)cc2OC(F)(F)F)C1` [Compound 2Bbe, N-[(1S,3R)-3-(3-methyl-4H-1,2,4-triazol-4-yl)cyclohexyl]-4-[6-(2,2,2-trifluoroethoxy)pyridin-3-yl]-2-(trifluoromethoxy)benzenesulfonamide], 2 nM; for `O=S(=O)(N[C@H]1CCC[C@@H](n2cnnc2)C1)c1cc(-c2cc3ccccc3o2)cc(C(F)(F)F)c1` [Compound 3Aae, 3-(1-benzofuran-2-yl)-N-[(1S,3R)-3-(4H-1,2,4-triazol-4-yl)cyclohexyl]-5-(trifluoromethyl)benzenesulfonamide], 1.8 nM.
For `CCc1cc(-c2ccn3nccc3n2)ccc1S(=O)(=O)N[C@H]1CCC[C@@H](n2cnnc2)C1` [Compound 2Aav, 2-ethyl-4-pyrazolo[1,5-a]pyrimidin-5-yl-N-[(1S,3R)-3-(4H-1,2,4-triazol-4-yl)cyclohexyl]benzenesulfonamide] the value was 9.7 nM; for `O=S(=O)(N[C@@H]1C[C@H](n2cnnc2)CC(F)(F)C1)c1ccc(-c2ccc(OCC(F)(F)F)nc2)c(F)c1` [2 Gf, N-[(1R,5S)-3,3-difluoro-5-(4H-1,2,4-triazol-4-yl)cyclohexyl]-3-fluoro-4-[6-(2,2,2-trifluoroethoxy)pyridin-3-yl]benzenesulfonamide], 4.4 nM; for `CCc1cc(-c2ccc(OC)nc2)ccc1S(=O)(=O)N[C@H]1CCC[C@@H](n2cnnc2)C1` [Compound 2Ag, 2-ethyl-4-(6-methoxypyridin-3-yl)-N-[(1S,3R)-3-(4H-1,2,4-triazol-4-yl)cyclohexyl]benzenesulfonamide], 9.9 nM.
In the case of `Cc1nncn1[C@@H]1CCC[C@H](NS(=O)(=O)c2ccc(OCCCCF)cc2)C1` [Compound 2Nad, 4-(4-fluorobutoxy)-N-[(1S,3R)-3-(3-methyl-4H-1,2,4-triazol-4-yl)cyclohexyl]benzenesulfonamide] it was 11 nM; in that of `CCc1cc(-c2cccc3cccnc23)cc(S(=O)(=O)N[C@H]2CCC[C@@H](n3cnnc3)C2)c1` [Compound 3Bd, 3-ethyl-5-quinolin-8-yl-N-[(1S,3R)-3-(4H-1,2,4-triazol-4-yl)cyclohexyl]benzenesulfonamide], 0.9 nM.
As to `Cc1nncn1[C@@H]1CCC[C@H](NS(=O)(=O)c2ccc(-c3ccc(OC(F)(F)F)cc3)c(F)c2)C1` [Compound 2Fa, 2-fluoro-N-[(1S,3R)-3-(3-methyl-4H-1,2,4-triazol-4-yl)cyclohexyl]-4′-(trifluoromethoxy)biphenyl-4-sulfonamide], the IC50 came out at 0.2 nM.
For `CCc1cc(-c2noc(C3CC3)n2)ccc1S(=O)(=O)N[C@@H]1C[C@H](n2cnnc2C)CC(F)(F)C1` [Compound 2Cbb, 4-(5-cyclopropyl-1,2,4-oxadiazol-3-yl)-N-[(1R,5S)-3,3-difluoro-5-(3-methyl-4H-1,2,4-triazol-4-yl)cyclohexyl]-2-ethylbenzenesulfonamide] the value was 0.8 nM; for `O=S(=O)(N[C@H]1CCC[C@@H](n2cnnc2)C1)c1cc(-c2cc(Cl)cnc2F)cc(C(F)(F)F)c1` [Compound 3Aab, 3-(5-chloro-2-fluoropyridin-3-yl)-N-[(1S,3R)-3-(4H-1,2,4-triazol-4-yl)cyclohexyl]-5-(trifluoromethyl)benzenesulfonamide], 4 nM; for `Cc1nncn1[C@@H]1CCC[C@H](NS(=O)(=O)c2ccc(-c3ccc(OC(F)F)cc3)c(F)c2)C1` [Compound 2Fc, 4′-(difluoromethoxy)-2-fluoro-N-[(1S,3R)-3-(3-methyl-4H-1,2,4-triazol-4-yl)cyclohexyl]biphenyl-4-sulfonamide], 1.9 nM.
For `O=S(=O)(N[C@H]1CCC[C@@H](n2cnnc2)C1)c1cc(F)c(-c2ccc(OC(F)(F)F)cc2)cc1F` [Compound 2Mo, 2,5-difluoro-N-[(1S,3R)-3-(4H-1,2,4-triazol-4-yl)cyclohexyl]-4′-(trifluoromethoxy)biphenyl-4-sulfonamide] the value was 12 nM; for `CCc1cc(-c2cnc3ccnn3c2)cc(S(=O)(=O)N[C@H]2CCC[C@@H](n3cnnc3)C2)c1` [Compound 3Bax, 3-ethyl-5-pyrazolo[1,5-a]pyrimidin-6-yl-N-[(1S,3R)-3-(4H-1,2,4-triazol-4-yl)cyclohexyl]benzenesulfonamide], 22 nM.
In turn, `O=S(=O)(N[C@H]1CCC[C@@H](n2cnnc2)C1)c1ccc(OC(F)(F)F)cc1` [Compound 2Mu, N-[(1S,3R)-3-(4H-1,2,4-triazol-4-yl)cyclohexyl]-4-(trifluoromethoxy)benzenesulfonamide] registered an IC50 of 164 nM.
The compound `CCc1cc(-c2cccnc2)ccc1S(=O)(=O)N[C@H]1CCC[C@@H](n2cnnc2)C1` [Compound 2Ao, 2-ethyl-4-pyridin-3-yl-N-[(1S,3R)-3-(4H-1,2,4-triazol-4-yl)cyclohexyl]benzenesulfonamide] came in with a concentration for half-maximal inhibition (IC50) of 159 nM.
In turn, `CCCCOc1ccc(S(=O)(=O)N[C@H]2CCC[C@@H](n3cnnc3C)C2)cc1` [Compound 2Nw, 4-butoxy-N-[(1S,3R)-3-(3-methyl-4H-1,2,4-triazol-4-yl)cyclohexyl]benzenesulfonamide] had an IC50 of 2.8 nM.
In the case of `CCc1cc(-c2ccc(OC(C)C)nc2)ccc1S(=O)(=O)N[C@H]1CCC[C@@H](n2cnnc2)C1` [Compound 2Aai, 2-ethyl-4-(6-isopropoxypyridin-3-yl)-N-[(1S,3R)-3-(4H-1,2,4-triazol-4-yl)cyclohexyl]benzenesulfonamide] it was 1.8 nM.
Compound `Cc1cc(C)cc(S(=O)(=O)N[C@H]2CCC[C@@H](n3cnnc3)C2)c1` [Compound 2Me, 3,5-dimethyl-N-[(1S,3R)-3-(4H-1,2,4-triazol-4-yl)cyclohexyl]benzenesulfonamide] had an IC50 of 194 nM.
`CCc1cc(-c2ccc(C#N)nc2)ccc1S(=O)(=O)N[C@H]1CCC[C@@H](n2cnnc2)C1` [Compound 2Ah, 4-(6-cyanopyridin-3-yl)-2-ethyl-N-[(1S,3R)-3-(4H-1,2,4-triazol-4-yl)cyclohexyl]benzenesulfonamide] displayed an IC50 of 570 nM.
In the case of `CCc1cc(-c2cnc(N)nc2)ccc1S(=O)(=O)N[C@H]1CCC[C@@H](n2cnnc2)C1` [Compound 2Aj, 4-(2-aminopyrimidin-5-yl)-2-ethyl-N-[(1S,3R)-3-(4H-1,2,4-triazol-4-yl)cyclohexyl]benzenesulfonamide] it was 1060 nM; in that of `O=S(=O)(N[C@H]1CCC[C@@H](n2cnnc2)C1)c1cc(-c2ccnc(F)c2)cc(C(F)(F)F)c1` [Compound 3Av, 3-(2-fluoropyridin-4-yl)-N-[(1S,3R)-3-(4H-1,2,4-triazol-4-yl)cyclohexyl]-5-(trifluoromethyl)benzenesulfonamide], 15 nM.
For `Cc1nncn1[C@@H]1CCC[C@H](NS(=O)(=O)c2ccc(-c3ccc(OC(C)C)nc3)c(F)c2)C1` [Compound 2Fe, 3-fluoro-4-(6-isopropoxypyridin-3-yl)-N-[(1S,3R)-3-(3-methyl-4H-1,2,4-triazol-4-yl)cyclohexyl]benzenesulfonamide] the value was 3.6 nM; for `CCc1cc(-c2cccc3cccnc23)cc(S(=O)(=O)N[C@@H]2C[C@H](n3cnnc3C)CC(F)(F)C2)c1` [Compound 3Da, N-[(1R,5S)-3,3-difluoro-5-(3-methyl-4H-1,2,4-triazol-4-yl)cyclohexyl]-3-ethyl-5-quinolin-8-ylbenzenesulfonamide], 1.8 nM; for `CCc1cc(-c2ccc(C)nc2)ccc1S(=O)(=O)N[C@H]1CCC[C@@H](n2cnnc2)C1` [Compound 2Ai, 2-ethyl-4-(6-methylpyridin-3-yl)-N-[(1S,3R)-3-(4H-1,2,4-triazol-4-yl)cyclohexyl]benzenesulfonamide], 119 nM.
`O=S(=O)(N[C@H]1CCC[C@@H](n2cnnc2)C1)c1c(C2CC2)cc(-c2noc(C3CCC3)n2)cc1C1CC1` [Compound 2Rb, 4-(5-cyclobutyl-1,2,4-oxadiazol-3-yl)-2,6-dicyclopropyl-N-[(1S,3R)-3-(4H-1,2,4-triazol-4-yl)cyclohexyl]benzenesulfonamide] displayed an IC50 of 0.1 nM.
`CCc1cc(-c2cccnc2O)ccc1S(=O)(=O)N[C@H]1CCC[C@@H](n2cnnc2)C1` [Compound 2Aag, 2-ethyl-4-(2-hydroxypyridin-3-yl)-N-[(1S,3R)-3-(4H-1,2,4-triazol-4-yl)cyclohexyl]benzenesulfonamide] gave an IC50 of 167 nM.

The record behind these values is US9029377B2, “Platelet-activating factor receptor antagonists” (Merck Sharp & Dohme Corp., priority 2009, dated 2015).
